Measurements: US8114871B2, “3-amido-pyrrolo[3,4-C]pyrazole-5(1H,4H,6H) carbaldehyde derivatives” (Pfizer Inc., priority 2007, dated 2012)

Biological target: Protein Kinase C beta 2 (PKCβII) (Homo sapiens, UniProt P05771)
Test: PKCβII coupled PK/LDH spectrophotometric kinase assay (decrease of NADH absorbance at 340 nm)
Assay type: biochemical
Conditions: apparent Ki, Morrison fit, 0.1 mM ATP, 30° C., pH 7.4; read-out: PKCb Ki
Description: This transfer is coupled to the oxidation of p-NADH through the activities of Pyruvate Kinase (PK) and Lactate Dehydrogenase (LDH).
A typical assay was carried out on a 96-well, clear microtiter plate in a Molecular Devices spectrophotometer for 20 minutes at 30° C. in 0.1 mL of assay buffer containing 50 mM HEPES, pH 7.4, 5 nM PKC, 23 units of pyruvate kinase, 33 units of lactate dehydrogenase, 0.15 mM peptide, 0.1 mM ATP, 1 mM DTT, 4 mM PEP, 8 mM MgCl2, 0.3 mM NADH, 60 mM CaCl2, 10 mg/mL PS, 50 ng/mL PMA, 7.5% DMSO and from about 10,000 nM to 0.169 nM compound inhibitor. Stock solutions of 3-sn-phosphatidyl-L-serine (PS) and phorbol-12-myristate-13-acetate (PMA) were sonicated for 30 seconds just prior to addition to assay buffer and assays were initiated by the addition of 100 μM ATP.
Enzyme turnover values (kcat) were calculated according to […], where [E] is the total enzyme concentration. […] Morrison, J. F., Biochim. Biophys Acta 185: 269-286 (1969).

Sequence of Protein Kinase C beta 2 (PKCβII) (P05771 1-673 isoform P05771-2): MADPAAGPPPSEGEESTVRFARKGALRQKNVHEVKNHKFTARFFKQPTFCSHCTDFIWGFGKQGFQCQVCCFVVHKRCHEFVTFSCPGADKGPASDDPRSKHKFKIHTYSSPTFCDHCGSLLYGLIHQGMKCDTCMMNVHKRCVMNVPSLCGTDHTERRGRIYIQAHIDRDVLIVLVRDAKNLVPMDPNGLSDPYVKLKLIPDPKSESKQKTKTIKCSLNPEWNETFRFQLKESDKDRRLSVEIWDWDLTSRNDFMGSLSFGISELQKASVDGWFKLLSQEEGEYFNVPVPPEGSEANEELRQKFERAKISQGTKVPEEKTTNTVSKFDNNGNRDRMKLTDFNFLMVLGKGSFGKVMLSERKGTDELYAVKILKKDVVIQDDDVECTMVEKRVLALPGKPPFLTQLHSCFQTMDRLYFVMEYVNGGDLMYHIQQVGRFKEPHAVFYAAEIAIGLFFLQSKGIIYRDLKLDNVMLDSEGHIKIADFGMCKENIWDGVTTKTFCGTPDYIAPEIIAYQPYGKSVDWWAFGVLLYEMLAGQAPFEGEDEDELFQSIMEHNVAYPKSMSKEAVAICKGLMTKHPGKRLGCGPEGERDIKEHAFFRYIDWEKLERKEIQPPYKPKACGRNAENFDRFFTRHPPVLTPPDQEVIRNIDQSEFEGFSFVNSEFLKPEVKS

Ki: 0.0375 µM
Structure (SMILES): CCOc1cccc(C(=O)Nc2n[nH]c3c2CN(C(=O)N2C[C@@H]4CCCN4C[C@@H]2C)C3(C)C)c1 [Example E5, N-(6,6-dimethyl-5-((3S,8aS)-3-methyl-octahydropyrrolo[1,2-a]pyrazine-2-carbonyl)-1,4,5,6-tetrahydropyrrolo[3,4-c]pyrazol-3-yl)-3-ethoxybenzamide]
